Experimental data from patent US20090023933A1, “METHOD FOR ISOLATING ACIDS FROM CHEMICAL REACTION MIXTURES BY USING 1-ALKYLIMIDAZOLES” (BASF Aktiengesellschaft, priority 2003, published 2009).

Assay: Behavior of the 1-alkylimidazoles toward 30% strength NaCl solution (shaking funnel, phase separation, Karl-Fischer and GC analysis)
Conditions: for Solubility of free base in NaCl solution in %: free 1-alkylimidazole, 5 g imidazole shaken with 5 g solution of 30 g NaCl in 100 g water, lower phase extracted, GC with internal standard; for Solubility of water in imidazole in %: water determination on upper (imidazole) phase by Karl-Fischer titration after shaking with NaCl solution
Protocol: A solution of 30 g of sodium chloride in 100 g of demineralized water was prepared. 5 g of this solution were admixed with 5 g of the imidazole derivative listed in a shaking funnel and the mixture was shaken vigorously. The phases were then separated and weighed.
The weight of the upper phase was recorded.
For the purposes of analysis, a water determination was carried out on the upper phase (by Karl-Fischer titration). The lower phase was, if present, separated off, admixed with 1N KOH solution and extracted twice with xylene. After drying over magnesium sulfate, an internal standard (heptadecane) was added and the amount of dissolved imidazole was backcalculated after GC analysis.

SMILES	Solubility of free base in NaCl solution in % [%]	Solubility of water in imidazole in %
CCn1ccnc1 [Et (comp.)]	100	ca. 50%
Cn1ccnc1 [Me (comp.)]	100	ca. 50%
CCCCn1ccnc1 [nBu, n-butylimidazole]	0.2	16%
CCCn1ccnc1 [nPr, n-propylimidazole]	3	30%
